For the experiment, the target named is T1, recombinant human NaV1.8 stably transfected HEK cells (Homo sapiens, UniProt Q9Y5Y9).
T1 construct: expressed in transfected cells; host or cells: HEK cells, stably transfected
Briefly: Compound profiling on NaV1.8, human NaV1.8 cell line, SyncroPatch384PE automated patch clamp assay (Example 102, first set of compounds, Table 16). It counts as cell-based. To be noted: human NaV1.8 HEK cells, Table 16 (first set of compounds). Summed up: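 Automated whole-cell patch clamp on HEK cells precultured at 30 °C one day before recording; CsF-based internal, 140 mM NaCl external. 10-point curve, 20–0.001 μM final, 0.1% DMSO, 5 min exposure. IC50 for resting (P1, −120 mV hold) and inactivated (P2, after 10 s at −40 mV) block, normalized to 250 μM tetracaine and DMSO.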

The mark [1] stands for this setting: inactivated state block (P2 measurement), read-out: P2IC50.
Where [2] appears, read: resting state block (P1 measurement), read-out: P1IC50.

Our source for the IC50 values is patent publication US20240336574A1 (LATIGO BIOTHERAPEUTICS, INC., priority 2021, published 2024).

Like-named read-outs stand apart in the source and are kept apart here. A value given as a limit tells only on which side of the number the result lay.

T1 sequence (Q9Y5Y9 whole entry): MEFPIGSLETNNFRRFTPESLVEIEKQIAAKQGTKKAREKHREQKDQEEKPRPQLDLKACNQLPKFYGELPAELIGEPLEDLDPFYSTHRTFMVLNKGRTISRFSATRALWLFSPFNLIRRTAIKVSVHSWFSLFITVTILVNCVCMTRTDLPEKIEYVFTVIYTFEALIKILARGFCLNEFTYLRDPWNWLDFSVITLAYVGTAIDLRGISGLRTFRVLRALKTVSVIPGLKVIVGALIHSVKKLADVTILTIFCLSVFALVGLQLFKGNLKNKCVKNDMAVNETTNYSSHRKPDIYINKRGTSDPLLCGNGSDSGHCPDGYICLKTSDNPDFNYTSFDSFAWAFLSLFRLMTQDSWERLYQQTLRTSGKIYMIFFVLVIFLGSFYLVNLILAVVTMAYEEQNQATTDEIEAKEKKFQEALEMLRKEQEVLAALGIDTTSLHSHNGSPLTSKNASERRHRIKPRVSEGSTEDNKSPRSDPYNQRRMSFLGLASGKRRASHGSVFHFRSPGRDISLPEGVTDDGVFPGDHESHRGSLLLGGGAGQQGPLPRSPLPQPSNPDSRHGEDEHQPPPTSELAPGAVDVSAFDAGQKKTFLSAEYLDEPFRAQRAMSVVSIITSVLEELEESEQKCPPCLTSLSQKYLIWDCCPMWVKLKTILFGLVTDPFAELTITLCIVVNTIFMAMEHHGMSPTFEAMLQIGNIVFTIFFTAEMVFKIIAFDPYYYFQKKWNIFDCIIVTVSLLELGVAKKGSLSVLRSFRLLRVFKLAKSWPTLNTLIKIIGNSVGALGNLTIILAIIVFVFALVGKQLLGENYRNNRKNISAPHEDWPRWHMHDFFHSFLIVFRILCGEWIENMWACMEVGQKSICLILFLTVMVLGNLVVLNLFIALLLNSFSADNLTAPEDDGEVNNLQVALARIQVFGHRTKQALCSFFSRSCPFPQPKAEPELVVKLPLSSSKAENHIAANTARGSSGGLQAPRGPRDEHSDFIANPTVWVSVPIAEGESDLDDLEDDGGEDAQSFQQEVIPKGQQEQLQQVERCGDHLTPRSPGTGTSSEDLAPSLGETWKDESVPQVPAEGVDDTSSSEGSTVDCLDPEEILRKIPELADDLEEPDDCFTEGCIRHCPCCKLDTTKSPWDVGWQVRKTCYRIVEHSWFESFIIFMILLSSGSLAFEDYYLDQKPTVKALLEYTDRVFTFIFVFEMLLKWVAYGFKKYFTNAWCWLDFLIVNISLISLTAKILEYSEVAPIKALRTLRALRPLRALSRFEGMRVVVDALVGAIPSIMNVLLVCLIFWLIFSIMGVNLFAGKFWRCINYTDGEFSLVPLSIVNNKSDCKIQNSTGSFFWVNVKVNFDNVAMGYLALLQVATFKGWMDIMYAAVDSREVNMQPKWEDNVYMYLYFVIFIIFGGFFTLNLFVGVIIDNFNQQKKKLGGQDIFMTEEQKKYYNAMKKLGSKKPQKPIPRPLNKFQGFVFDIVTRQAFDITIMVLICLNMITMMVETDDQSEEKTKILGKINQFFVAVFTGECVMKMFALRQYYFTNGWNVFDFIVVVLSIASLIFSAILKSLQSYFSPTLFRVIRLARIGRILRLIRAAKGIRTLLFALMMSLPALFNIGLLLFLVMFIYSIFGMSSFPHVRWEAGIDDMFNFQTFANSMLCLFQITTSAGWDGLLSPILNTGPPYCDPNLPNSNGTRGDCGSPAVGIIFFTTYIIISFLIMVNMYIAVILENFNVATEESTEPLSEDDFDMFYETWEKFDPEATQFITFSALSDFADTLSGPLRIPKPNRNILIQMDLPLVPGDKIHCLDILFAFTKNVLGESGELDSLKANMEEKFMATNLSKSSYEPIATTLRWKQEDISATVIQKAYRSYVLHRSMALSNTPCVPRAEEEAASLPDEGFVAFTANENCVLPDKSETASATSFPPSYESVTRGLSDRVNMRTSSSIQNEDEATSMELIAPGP

As to `COc1cc(F)ccc1Oc1ncc(C(F)(F)F)cc1C(=O)Nc1cccc(S(C)(=O)=O)c1` [Compound 1575], the IC50 reads like this: under setting [1], at most 20 nM; under setting [2], at most 20 nM.

`COc1cc(Oc2ncc(C(F)(F)F)cc2C(=O)Nc2cccc(S(C)(=N)=O)c2)ccc1C#N` (stereo not shown) [Compound 1645]: the IC50 under setting [1] lay in the range of 200 to 500 nM and the IC50 under setting [2] was 200 to 500 nM.

`COc1c(Oc2nnc(C(F)(F)F)c(C)c2C(=O)Nc2cccnc2)ccc(F)c1F` [Compound 1475, 3-(3,4-difluoro-2-methoxy-phenoxy)-5-methyl-N-(3-pyridyl)-6-(trifluoromethyl)pyridazine-4-carboxamide]: the IC50 reads like this: under setting [1], at most 20 nM; under setting [2], at most 20 nM.

On to `CS(=O)(=O)c1cccc(NC(=O)c2cc(C(F)(F)F)cnc2Oc2ccc(C#N)nc2)c1` [Compound 1703], for which the IC50 under setting [1] lay in the range of 200 to 500 nM and the IC50 under setting [2] was 200 to 500 nM.

For `Cc1cc(F)ccc1Oc1ncc(Cl)c(C)c1C(=O)Nc1cccc(S(C)(=N)=O)c1` (stereo not shown) [Compound 1558, 5-chloro-2-(4-fluoro-2-methylphenoxy)-4-methyl-N-(3-(S-methylsulfonimidoyl)phenyl)nicotinamide], the IC50 runs as follows: under setting [1], at most 20 nM; under setting [2], at most 20 nM.

Turning to `Cc1cc(F)ccc1Oc1ncc(C#N)cc1C(=O)Nc1cccc(S(C)(=N)=O)c1` (stereo not shown) [Compound 1578], the IC50 under setting [1] lay in the range of 200 to 500 nM and the IC50 under setting [2] was 200 to 500 nM.

In the case of `Cc1nn(C)cc1Oc1ncc(C(F)(F)F)cc1C(=O)Nc1cccc(S(C)(=N)=O)c1` (stereo not shown) [Compound 1590], the IC50 lay in the range of 200 to 500 nM under setting [1] and 200 to 500 nM under setting [2].

For `CC(C)Oc1ccc(Oc2ncc(C(F)(F)F)cc2C(=O)Nc2ccc(C(N)=O)cc2)c(F)c1F` [Compound 1711], the IC50 lay in the range of 20 to 40 nM under setting [1] and 20 to 40 nM under setting [2].

As for `Cc1nc(OC2CCC2)ccc1Oc1nnc(C(F)(F)F)c(C)c1C(=O)Nc1cccc(S(C)(=N)=O)c1` (stereo not shown) [Compound 1498, 3-[(6-cyclobutoxy-2-methylpyridin-3-yl)oxy]-N-{3-[imino(methyl)oxo-λ^6-sulfanyl]phenyl}-5-methyl-6-(trifluoromethyl)pyridazine-4-carboxamide], the IC50 runs as follows: under setting [1], 40 to 200 nM; under setting [2], 40 to 200 nM.

For the compound `Cc1cc(F)ccc1Oc1nnc(C(F)(F)F)c(-c2cnn(C)c2)c1C(=O)Nc1cccc([S@@](C)(=N)=O)c1` [Compound 1521, (S)-3-(4-fluoro-2-methylphenoxy)-5-(1-methyl-1H-pyrazol-4-yl)-N-(3-(S-methylsulfonimidoyl)phenyl)-6-(trifluoromethyl)pyridazine-4-carboxamide], the IC50 is, setting by setting: under setting [1], 200 to 500 nM; under setting [2], 200 to 500 nM.

Consider `Cc1nc(OC2CCC2)ccc1Oc1ncc(C(F)(F)F)cc1C(=O)Nc1ccc(C(N)=O)cc1` [Compound 1566, N-(4-carbamoylphenyl)-2-[[6-(cyclobutoxy)-2-methyl-3-pyridyl]oxy]-5-(trifluoromethyl)pyridine-3-carboxamide], for which the IC50 under setting [1] fell in the range of 200 to 500 nM and the IC50 under setting [2] fell in the range of 200 to 500 nM.

For `Cn1cc(Oc2ncc(C(F)(F)F)cc2C(=O)Nc2cccc(S(C)(=O)=O)c2)cn1` [Compound 1610], the IC50 by setting is: under setting [1], 200 to 500 nM; under setting [2], 200 to 500 nM.

As to `Cc1c(C(F)(F)F)nnc(Oc2c(F)cc(OC(F)(F)F)cc2F)c1C(=O)Nc1cccc(S(C)(=N)=O)c1` (stereo not shown) [Compound 1514, 3-[2,6-difluoro-4-(trifluoromethoxy)phenoxy]-N-{3-[imino(methyl)oxo-λ^6-sulfanyl]phenyl}-5-methyl-6-(trifluoromethyl)pyridazine-4-carboxamide], the IC50 under setting [1] is 40 to 200 nM and the IC50 under setting [2] fell in the range of 40 to 200 nM.

As for `CCOc1ncc(C(F)(F)F)cc1C(=O)Nc1cccc(S(C)(=O)=O)c1` [Compound 1600], the IC50 lay in the range of 200 to 500 nM under setting [1] and 200 to 500 nM under setting [2].

Take `Cc1c(C(F)(F)F)nnc(Oc2ccc(Cl)cc2F)c1C(=O)Nc1cccc(S(C)(=N)=O)c1` (single isomer, unassigned) [Compound 1472, 3-(4-chloro-2-fluoro-phenoxy)-5-methyl-N-[3-(methylsulfonimidoyl)phenyl]-6-(trifluoromethyl)pyridazine-4-carboxamide]: the IC50 under setting [2] was at most 20 nM.

As to `Cc1c(C(F)(F)F)nnc(Oc2ccc(OC3CCC3)c(F)c2F)c1C(=O)Nc1cccc(S(C)(=N)=O)c1` (single isomer, unassigned) [Compound 1493, 3-(4-cyclobutoxy-2,3-difluorophenoxy)-N-{3-[imino(methyl)oxo-λ^6-sulfanyl]phenyl}-5-methyl-6-(trifluoromethyl)pyridazine-4-carboxamide], the IC50 was at most 20 nM under setting [1] and at most 20 nM under setting [2].

With `N#CC1CC(Oc2ncc(C(F)(F)F)cc2C(=O)Nc2cccc(C(N)=O)c2)C1` (mixture of isomers) [Compound 1668], the IC50 runs as follows: under setting [1], 200 to 500 nM; under setting [2], 200 to 500 nM.

In the case of `COc1c(Oc2ncc(C#N)cc2C(=O)Nc2cccc(C(N)=O)c2)ccc(F)c1F` [Compound 1724, N-(3-carbamoylphenyl)-5-cyano-2-(3,4-difluoro-2-methoxy-phenoxy)pyridine-3-carboxamide], the IC50 reads like this: under setting [1], 40 to 200 nM; under setting [2], 40 to 200 nM.

Regarding `COc1c(Oc2ncc(C(F)(F)F)cc2C(=O)NC23CC(C(N)=O)(C2)C3)ccc(F)c1F` [Compound 1722, N-(3-carbamoyl-1-bicyclo[1.1.1]pentanyl)-2-(3,4-difluoro-2-methoxy-phenoxy)-5-(trifluoromethyl)pyridine-3-carboxamide], the IC50 was in the range of 200 to 500 nM under setting [1] and 200 to 500 nM under setting [2].

Regarding `COc1cc(C#N)ccc1Oc1ncc(C(F)(F)F)cc1C(=O)Nc1cccc(S(N)(=O)=O)c1` [Compound 1561, 2-(4-cyano-2-methoxyphenoxy)-N-(3-sulfamoylphenyl)-5-(trifluoromethyl)pyridine-3-carboxamide], the IC50 reads like this: under setting [1], at most 20 nM; under setting [2], at most 20 nM.

Turning to `Cc1cc(F)ccc1Oc1ncc(Br)c(C)c1C(=O)Nc1cccc([S@@](C)(=N)=O)c1` [Compound 1728, 5-bromo-2-(4-fluoro-2-methylphenoxy)-N-{3-[(S)-imino(methyl)oxo-λ^6-sulfanyl]phenyl}-4-methylpyridine-3-carboxamide], the IC50 is at most 20 nM under setting [1] and at most 20 nM under setting [2].

As for `COc1c(Oc2ncc(Br)cc2C(=O)Nc2cccc(S(C)(=N)=O)c2)ccc(F)c1F` (stereo not shown) [Compound 1567, 5-bromo-2-(3,4-difluoro-2-methoxy-phenoxy)-N-[3-(methylsulfonimidoyl)phenyl]pyridine-3-carboxamide], the IC50 by setting is: under setting [1], at most 20 nM; under setting [2], at most 20 nM.

With `CS(=O)(=O)c1cccc(NC(=O)c2cc(C(F)(F)F)cnc2Oc2cccc(S(C)(=O)=O)c2)c1` [Compound 1718, 2-(3-methylsulfonylphenoxy)-N-(3-methylsulfonylphenyl)-5-(trifluoromethyl)pyridine-3-carboxamide], the IC50 by setting is: under setting [1], 200 to 500 nM; under setting [2], 200 to 500 nM.

Turning to `CS(=O)(=O)c1cccc(NC(=O)c2cc(C(F)(F)F)cnc2OCC2CC2(F)F)c1` (stereo not shown) [Compound 1659], the IC50 under setting [1] was in the range of 40 to 200 nM and the IC50 under setting [2] fell in the range of 40 to 200 nM.

With `Cc1cc(F)ccc1Oc1nnc(N2CC(F)C2)c(C)c1C(=O)Nc1cccc(S(C)(=N)=O)c1` (stereo not shown) [Compound 1431, 6-(3-Fluoroazetidin-1-yl)-3-(4-fluoro-2-methyl-phenoxy)-5-methyl-N-[3-(methylsulfonimidoyl)phenyl]pyridazine-4-carboxamide], the IC50 by setting is: under setting [1], 200 to 500 nM; under setting [2], 200 to 500 nM.
